Results from article PMC7296983 (Journal of medicinal chemistry, 2019).

Legend:
NNMT [1] = settings: cited from earlier work
HCT116 = type: in vitro ADME; settings: human, 100 μM
NNMT [2] = molecular target: T1, NNMT (Homo sapiens, UniProt P40261); assay: SAH hydrolase; type: biochemical; settings: for activity compared to respective parent compound 1g, 1h and 3a: aspartic replaced by glutamic amino acid portion
T1 sequence (P40261 1-264): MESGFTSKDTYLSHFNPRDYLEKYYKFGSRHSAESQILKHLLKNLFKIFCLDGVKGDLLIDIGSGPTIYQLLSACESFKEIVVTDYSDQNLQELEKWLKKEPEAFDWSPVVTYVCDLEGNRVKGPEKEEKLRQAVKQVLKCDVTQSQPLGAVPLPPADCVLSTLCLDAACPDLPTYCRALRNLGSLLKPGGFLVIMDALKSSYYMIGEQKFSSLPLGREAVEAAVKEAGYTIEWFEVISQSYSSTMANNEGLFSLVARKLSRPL

TbPRMT7 = TbPRMT7 (Trypanosoma brucei brucei, UniProt Q582G4); assay: biochemical
Chain of TbPRMT7 (Q582G4 whole entry): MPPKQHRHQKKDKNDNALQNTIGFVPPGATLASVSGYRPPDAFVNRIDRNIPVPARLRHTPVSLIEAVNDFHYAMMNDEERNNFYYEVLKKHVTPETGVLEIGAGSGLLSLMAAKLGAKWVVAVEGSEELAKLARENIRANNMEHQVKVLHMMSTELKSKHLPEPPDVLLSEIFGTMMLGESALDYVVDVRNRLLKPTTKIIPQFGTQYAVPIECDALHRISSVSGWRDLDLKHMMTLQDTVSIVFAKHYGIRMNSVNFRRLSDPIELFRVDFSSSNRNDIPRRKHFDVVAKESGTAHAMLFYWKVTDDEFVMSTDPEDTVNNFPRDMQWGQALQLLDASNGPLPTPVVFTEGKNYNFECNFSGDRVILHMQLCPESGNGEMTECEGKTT

NTMT1 = molecular target: T2, NTMT1 (Homo sapiens, UniProt Q9BV86); assay: Selectivity assay, SAHH-coupled fluorescence; type: biochemical; settings: read-out: Enzyme activity (%)
T2 sequence (Q9BV86 1-223): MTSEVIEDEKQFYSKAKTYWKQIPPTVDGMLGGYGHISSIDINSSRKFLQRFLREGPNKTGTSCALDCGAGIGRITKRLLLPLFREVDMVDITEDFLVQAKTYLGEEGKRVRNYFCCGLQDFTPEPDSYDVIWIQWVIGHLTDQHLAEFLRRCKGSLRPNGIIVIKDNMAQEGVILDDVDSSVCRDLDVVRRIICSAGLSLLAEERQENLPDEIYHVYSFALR

PRMT1 = PRMT1 (Homo sapiens, UniProt Q99873); assay: Selectivity assay, SAHH-coupled fluorescence; type: biochemical
Chain of PRMT1 (Q99873 whole entry, species assumed): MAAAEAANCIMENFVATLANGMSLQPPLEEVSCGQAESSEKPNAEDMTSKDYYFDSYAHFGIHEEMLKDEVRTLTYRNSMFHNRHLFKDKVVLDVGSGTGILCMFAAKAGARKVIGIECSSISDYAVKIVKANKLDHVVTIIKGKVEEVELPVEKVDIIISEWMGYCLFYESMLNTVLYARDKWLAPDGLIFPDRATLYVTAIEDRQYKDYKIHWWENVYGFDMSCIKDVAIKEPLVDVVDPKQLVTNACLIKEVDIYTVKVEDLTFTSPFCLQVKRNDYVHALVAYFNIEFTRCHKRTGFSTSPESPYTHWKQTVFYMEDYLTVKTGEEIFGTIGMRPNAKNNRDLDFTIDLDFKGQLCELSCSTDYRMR

NNMT [3] = settings: cited from earlier work; remark: listed apart in the source
NNMT [4] = settings: cited from earlier work; remark: listed apart in the source
[5] = substrate: NC(=O)c1cccnc1; assay: purified protein, by the assay type; settings: other: substrate and cofactor, Figure S1; pH 7.5; 37.0 °C
SAH hydrolase = substrate: C[S+](CC[C@H](N)C(=O)[O-])C[C@H]1O[C@@H](n2cnc3c(N)ncnc32)[C@H](O)[C@@H]1O; assay: SAH hydrolase; type: biochemical, human; settings: other: substrate and cofactor, Figure S1; pH 7.5; 37.0 °C

Cc1ccncc1C(N)=O [4-methylnicotinamide]
Km relative to nicotinamide (NNMT [1]): comparable to nicotinamide

NC(=O)c1cccc(CCCN(CC[C@H](N)C(=O)O)C[C@H]2O[C@@H](n3cnc4c(N)ncnc43)[C@H](O)[C@@H]2O)c1 [Compound 1a]
cell permeability (MS detection of cellular levels) (HCT116): barely exhibited enhanced cell permeability

Cc1ccc(C(N)=O)cc1CCCN(CC[C@H](N)C(=O)O)C[C@H]1O[C@@H](n2cnc3c(N)ncnc32)[C@H](O)[C@@H]1O [Compound 1b, (S)-2-amino-4-((((2R,3S,4R,5R)-5-(6-amino-9H-purin-9-yl)-3,4dihydroxytetrahydrofuran-2-yl)methyl)(3-(5-carbamoyl-2methylphenyl)propyl)amino)butanoic acid]
decrease of inhibitory activity compared with 1a (NNMT [2]): more than 3 fold

Cc1ccc(CCCN(CC[C@H](N)C(=O)O)C[C@H]2O[C@@H](n3cnc4c(N)ncnc43)[C@H](O)[C@@H]2O)cc1C(N)=O [Compound 1c, (S)-2-amino-4-((((2R,3S,4R,5R)-5-(6-amino-9H-purin-9-yl)-3,4dihydroxytetrahydrofuran-2-yl)methyl)(3-(3-carbamoyl-4methylphenyl)propyl)amino)butanoic acid]
decrease of inhibitory activity compared with 1a (NNMT [2]): marginally affected the inhibition

NC(=O)c1cccc(CCCN(CCC[C@H](N)C(=O)O)C[C@H]2O[C@@H](n3cnc4c(N)ncnc43)[C@H](O)[C@@H]2O)c1 [Compound 1d, (S)-2-amino-5-((((2R,3S,4R,5R)-5-(6-amino-9H-purin-9-yl)-3,4-dihydroxytetrahydrofuran-2-yl)methyl)(3-(3-arbamoylphenyl)propyl)amino)pentanoic acid]
decrease of inhibitory activity compared with 1a (NNMT [2]): 70 fold

Nc1ncnc2c1ncn2[C@@H]1O[C@H](CN(CCCc2cccc3ccccc23)CCC[C@H](N)C(=O)O)[C@@H](O)[C@H]1O [Compound 1e, (S)-2-amino-5-((((2R,3S,4R,5R)-5-(6-amino-9H-purin-9-yl)-3,4-dihydroxytetrahydrofuran-2-yl)methyl)(3-(naphthalen-1-yl)propyl)amino)pentanoic acid]
activity compared to respective parent compound 1g, 1h and 3a (NNMT [2]): either comparable or 3-fold decreased activities

Nc1ncnc2c1ncn2[C@@H]1O[C@H](CN(CCCc2ccc3ccccc3c2)CCC[C@H](N)C(=O)O)[C@@H](O)[C@H]1O [Compound 1f, (S)-2-amino-5-((((2R,3S,4R,5R)-5-(6-amino-9H-purin-9-yl)-3,4-dihydroxytetrahydrofuran-2-yl)methyl)(3-(naphthalen-2-yl)propyl)amino)pentanoic acid]
activity compared to respective parent compound 1g, 1h and 3a (NNMT [2]): either comparable or 3-fold decreased activities

COC(=O)c1cccc(CCCN(CC[C@H](N)C(=O)O)C[C@H]2O[C@@H](n3cnc4c(N)ncnc43)[C@H](O)[C@@H]2O)c1 [Compound 1j, (S)-2-amino-4-((((2R,3S,4R,5R)-5-(6-amino-9H-purin-9-yl)-3,4-dihydroxytetrahydrofuran-2-yl)methyl)(3-(3-(methoxycarbonyl)phenyl)propyl)amino)butanoic acid]
decrease of inhibitory activity compared with 1a (NNMT [2]): about 700 fold

NC(=O)c1cccc(C#CCN(CC[C@H](N)C(=O)O)C[C@H]2O[C@@H](n3cnc4c(N)ncnc43)[C@H](O)[C@@H]2O)c1 [Compound 2a, (S)-2-amino-4-((((2R,3S,4R,5R)-5-(6-amino-9H-purin-9-yl)-3,4-dihydroxytetrahydrofuran-2-yl)methyl)(3-(3-carbamoylphenyl)prop-2-yn-1-yl)amino)butanoic acid]
IC50 (TbPRMT7): > 33 µM
remaining activity at 3.7 µM (NTMT1): 64%
IC50 (PRMT1): > 100 µM

NC(=O)c1cccc(C#CCN(CC[C@H](N)C(=O)O)C[C@H]2O[C@@H](n3cnc4c(N)ncnc43)[C@H](O)[C@@H]2O)c1 [Compound 2a]
cell permeability (MS detection of cellular levels) (HCT116): limited permeability

COc1ccc(C(N)=O)cc1C#CCN(CC[C@H](N)C(=O)O)C[C@H]1O[C@@H](n2cnc3c(N)ncnc32)[C@H](O)[C@@H]1O [Compound 2b, (S)-2-amino-4-((((2R,3S,4R,5R)-5-(6-amino-9H-purin-9-yl)-3,4-dihydroxytetrahydrofuran-2-yl)methyl)(3-(5-carbamoyl-2-methoxyphenyl)prop-2-yn-1-yl)amino)butanoic acid]
loss of activity compared to 2a (NNMT [2]): 7 fold

Cc1ccc(C#CCN(CC[C@H](N)C(=O)O)C[C@H]2O[C@@H](n3cnc4c(N)ncnc43)[C@H](O)[C@@H]2O)cc1C(N)=O [Compound 2c, (S)-2-amino-4-((((2R,3S,4R,5R)-5-(6-amino-9H-purin-9-yl)-3,4-dihydroxytetrahydrofuran-2-yl)methyl)(3-(3-carbamoyl-4-methylphenyl)prop-2-yn-1-yl)amino)butanoic acid]
loss of activity compared to 2a (NNMT [2]): comparable activity

NC(=O)c1cccc(C#CCNC[C@H]2O[C@@H](n3cnc4c(N)ncnc43)[C@H](O)[C@@H]2O)c1 [Compound 2d, 3-(3-((((2R,3S,4R,5R)-5-(6-amino-9H-purin-9-yl)-3,4-dihydroxytetrahydrofuran-2-yl)methyl)amino)prop-1-yn-1-yl)benzamide]
loss of activity compared to 2a (NNMT [2]): ~500 fold

NC(=O)c1cccc(CCCCN(CCC[C@H](N)C(=O)O)C[C@H]2O[C@@H](n3cnc4c(N)ncnc43)[C@H](O)[C@@H]2O)c1 [Compound 3b, (S)-2-amino-5-((((2R,3S,4R,5R)-5-(6-amino-9H-purin-9-yl)-3,4-dihydroxytetrahydrofuran-2-yl)methyl)(4-(3-carbamoylphenyl)butyl)amino)pentanoic acid]
activity compared to respective parent compound 1g, 1h and 3a (NNMT [2]): either comparable or 3-fold decreased activities

NC(=O)c1cccc(CCN(CCC[C@H](N)C(=O)O)C[C@H]2O[C@@H](n3cnc4c(N)ncnc43)[C@H](O)[C@@H]2O)c1 [MS2734]
fold higher inhibitory activity than MS 2756 (NNMT [3]; aspartic amino acid replaced with glutamic acid in the SAM portion): over 10 fold
activity of previously reported bisubstrate analogs (NNMT [3]): moderate activities at μM range

NC(=O)c1cccc(CCN(CC[C@H](N)C(=O)O)C[C@H]2O[C@@H](n3cnc4c(N)ncnc43)[C@H](O)[C@@H]2O)c1 [MS2756]
activity of previously reported bisubstrate analogs (NNMT [3]): moderate activities at μM range

NC(=O)c1cccc(C#C[C@@H](CC[C@H](N)C(=O)O)C[C@H]2O[C@@H](n3cnc4c(N)ncnc43)[C@H](O)[C@@H]2O)c1 [NS1]
Ki (NNMT [4]): ~0.0005 µM

c1ccc2ncccc2c1 [Quinoline]
Km relative to nicotinamide (NNMT [1]): comparable to nicotinamide

c1ccc2cnccc2c1 [isoquinoline]
Km relative to nicotinamide (NNMT [1]): ~3 fold

B1: NNMT (Homo sapiens) (protein)
chain: T1 sequence (P40261 1-264)
Km [5]: 10 µM
Km (SAH hydrolase): 10 µM
